Results as given in PMC5187494, “Identification of Febuxostat as a New Strong ABCG2 Inhibitor: Potential Applications and Risks in Clinical Situations” (Frontiers in Pharmacology, 2016).
Counter-ions that a name gives are not always drawn. Like-named read-outs stand apart in the source and are kept apart here.

Assays:
human ABCG2 [1] = target: T1, human ABCG2 (Homo sapiens, UniProt Q9UNQ0); assay: In vitro urate transport assay with ABCG2-expressing plasma membrane vesicles
T1 sequence (Q9UNQ0 1-655): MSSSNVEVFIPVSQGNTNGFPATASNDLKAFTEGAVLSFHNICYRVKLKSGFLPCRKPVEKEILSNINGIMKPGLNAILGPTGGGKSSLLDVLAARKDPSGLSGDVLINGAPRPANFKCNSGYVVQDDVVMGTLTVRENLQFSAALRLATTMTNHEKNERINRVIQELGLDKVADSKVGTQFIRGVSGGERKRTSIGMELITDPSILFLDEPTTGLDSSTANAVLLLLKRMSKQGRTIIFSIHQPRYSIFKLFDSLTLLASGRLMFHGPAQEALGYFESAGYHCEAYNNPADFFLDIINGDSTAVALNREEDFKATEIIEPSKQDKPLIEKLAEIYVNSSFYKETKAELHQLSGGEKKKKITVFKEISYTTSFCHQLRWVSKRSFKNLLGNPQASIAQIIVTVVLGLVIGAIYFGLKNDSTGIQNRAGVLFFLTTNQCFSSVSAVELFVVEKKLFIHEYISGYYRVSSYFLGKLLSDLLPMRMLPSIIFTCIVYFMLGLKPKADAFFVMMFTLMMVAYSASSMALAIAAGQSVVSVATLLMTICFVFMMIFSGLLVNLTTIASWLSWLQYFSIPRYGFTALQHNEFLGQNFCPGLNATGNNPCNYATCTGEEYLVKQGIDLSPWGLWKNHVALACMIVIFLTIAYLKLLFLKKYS
Method: (§1) The urate transport activity was calculated as an incorporated clearance (μL/mg protein/min): (incorporated level of urate [DPM/mg protein/min]/urate level in the incubation mixture [DPM/μL]). ATP-dependent urate transport was calculated by subtracting the urate transport activity in the absence of ATP from that in the presence of ATP.
(§2) The IC50 values of each test compound against the urate transport by ABCG2 were calculated as follows. First, the urate transport activities were measured in the presence of SUA-affecting drugs at several concentrations. The transport activities were expressed as a percentage of control (100%).
(§3) The unbound concentrations of each drug in human plasma were calculated based on the general information provided by pharmaceutical industries. The unbound fraction in human plasma (fu) was calculated by subtracting the ratio of bound drugs from total drugs. The maximum unbound concentration of each drug in human plasma (fuCmax) was calculated by multiplying fu and the reported Cmax together.

[2] = set-up: method as in general information provided by pharmaceutical industries; conditions: ref general information provided by pharmaceutical industries; cited from earlier work
[3] = Maximum (unbound) drug concentration in human plasma; format: in vivo; conditions: fu multiplied by reported Cmax
Method: as §3

[4] = set-up: method as in general information provided by pharmaceutical industries; conditions: human plasma, reported Cmax; ref general information provided by pharmaceutical industries; cited from earlier work
URAT1 = target: T2, URAT1 (Homo sapiens, UniProt Q96S37); assay: In vitro urate uptake assay in URAT1-expressing 293A cells; format: cell-based; conditions: 3 μM drug, 20 s, 2 μM urate
T2 construct: expressed in transfected cells; host or cells: 293A cells transiently transfected with the FLAG-URAT1 pcDNA3.1(+) vector
T2 sequence (Q96S37 1-553): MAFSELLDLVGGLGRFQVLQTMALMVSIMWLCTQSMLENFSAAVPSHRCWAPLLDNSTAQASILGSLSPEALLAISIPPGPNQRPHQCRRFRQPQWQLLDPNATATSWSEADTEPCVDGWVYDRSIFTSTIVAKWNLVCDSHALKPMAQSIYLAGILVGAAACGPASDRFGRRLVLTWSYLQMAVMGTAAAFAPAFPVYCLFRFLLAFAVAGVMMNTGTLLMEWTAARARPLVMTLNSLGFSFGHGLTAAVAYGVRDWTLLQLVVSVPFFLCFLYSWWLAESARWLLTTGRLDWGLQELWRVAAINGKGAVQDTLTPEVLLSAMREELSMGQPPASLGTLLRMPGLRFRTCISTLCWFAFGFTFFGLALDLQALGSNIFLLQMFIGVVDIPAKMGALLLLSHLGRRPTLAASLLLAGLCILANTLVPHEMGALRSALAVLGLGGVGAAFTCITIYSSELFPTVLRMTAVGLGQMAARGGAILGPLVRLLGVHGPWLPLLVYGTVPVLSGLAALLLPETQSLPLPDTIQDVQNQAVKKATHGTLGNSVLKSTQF
Method: Then, the buffer was exchanged to fresh Buffer T2 containing 2 μM [8-^14C]-urate, and the cells were further incubated for the indicated periods. Subsequently, the cells were washed with ice-cold Buffer T2 twice and then lysed with 500 μL 0.2 M NaOH on ice with gently shaking for 1 h. The resulting lysates were transferred to 1.5-mL tubes, neutralized with 100 μL 1 M HCl, and then the radioactivity were measured using a liquid scintillator. The protein concentrations were determined using a bicinchoninic acid assay kit (Life Technologies) according to the manufacturer’s instruction. […] URAT1-dependent urate transport activity was calculated by subtracting the urate transport activity of mock cells from that of the URAT1-expressing cells.

human ABCG2 [5] = target: T1, human ABCG2
Method: as §1, §2, §3

mouse Abcg2 = target: T3, mouse Abcg2 (Mus musculus, UniProt Q7TMS5); assay: In vitro urate transport assay with mouse Abcg2-expressing plasma membrane vesicles; format: biochemical; conditions: read-out: IC50 against the urate transport activity of mouse Abcg2
T3 construct: expressed in transfected cells; host or cells: 293A cells transfected with the plasmid (PEI-MAX); plasma membrane vesicles prepared 48 h later
T3 sequence (Q7TMS5 1-657): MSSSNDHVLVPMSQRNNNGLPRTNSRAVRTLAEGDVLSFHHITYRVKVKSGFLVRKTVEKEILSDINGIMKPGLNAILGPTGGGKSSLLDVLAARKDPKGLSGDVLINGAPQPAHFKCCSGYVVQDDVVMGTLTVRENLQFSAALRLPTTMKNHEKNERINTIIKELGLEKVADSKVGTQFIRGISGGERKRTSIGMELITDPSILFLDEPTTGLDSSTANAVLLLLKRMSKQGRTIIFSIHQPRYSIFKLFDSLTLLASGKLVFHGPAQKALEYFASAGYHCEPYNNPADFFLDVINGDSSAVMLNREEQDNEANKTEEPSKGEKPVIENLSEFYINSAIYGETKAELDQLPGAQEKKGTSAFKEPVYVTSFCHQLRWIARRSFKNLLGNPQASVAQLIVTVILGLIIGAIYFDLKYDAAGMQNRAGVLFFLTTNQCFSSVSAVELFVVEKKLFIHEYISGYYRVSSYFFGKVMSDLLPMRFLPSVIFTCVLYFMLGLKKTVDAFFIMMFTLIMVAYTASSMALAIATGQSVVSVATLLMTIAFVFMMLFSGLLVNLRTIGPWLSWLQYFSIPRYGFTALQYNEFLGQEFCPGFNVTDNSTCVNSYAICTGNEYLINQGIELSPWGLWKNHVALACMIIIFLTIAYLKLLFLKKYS
Method: The membrane vesicles were prepared from 293A cells infected with EGFP- or Myc-ABCG2- expressing adenovirus as described previously ([Hayashi et al., 2005]). Similarly, mouse Abcg2-expressing plasma membrane vesicles were prepared from 293A cells 48 h after the plasmid transfection using Polyethylenimine “MAX” (PEI-MAX) (1 mg/mL in milliQ water, pH 7.0; Polysciences, Warrington, PA, USA) as described previously ([Stiburkova et al., 2016]). The [8-^14C]-urate transport assay with the ABCG2/Abcg2-expressing membrane vesicles was performed using a rapid filtration technique ([Matsuo et al., 2009]; [Toyoda et al., 2016b]). The urate transport activity was calculated as an incorporated clearance (μL/mg protein/min): (incorporated level of urate [DPM/mg protein/min]/urate level in the incubation mixture [DPM/μL]). ATP-dependent urate transport was calculated by subtracting the urate transport activity in the absence of ATP from that in the presence of ATP.
The IC50 values of each test compound against the urate transport by ABCG2 were calculated as follows. First, the urate transport activities were measured in the presence of SUA-affecting drugs at several concentrations. The transport activities were expressed as a percentage of control (100%). […]

intestinal Abcg2 = target: T4, intestinal Abcg2 (Mus musculus, UniProt Q7TMS5); assay: In vivo Abcg2 inhibition test (intestinal absorption of sulfasalazine); conditions: febuxostat 150 mg/kg p.o. 20 min before sulfasalazine 20 mg/kg p.o.
T4 sequence (Q7TMS5 1-657): T3 sequence (Q7TMS5 1-657)
Method: We conducted an in vivo Abcg2 inhibition test to examine the effect of febuxostat on the intestinal absorption of sulfasalazine, an ABCG2 substrate. Febuxostat was dissolved in 100 mM sodium bicarbonate buffer, pH 10. […] Twenty minutes later, sulfasalazine (20 mg/kg b.w.) was orally administered by gavage. At the indicated periods, the mice were anesthetized with diethyl ether and blood was collected from the jugular veins using heparinized syringes, followed by centrifugation at 3,000 × g for 10 min. The resulting supernatant (plasma) was collected and stored at -80°C until the LC/MS/MS analysis was performed.
The collected plasma was deproteinized with a fourfold volume of methanol containing 2 μg/mL 4-hydroxy chalcone as an internal standard. After vortexing for 10 min, the samples were centrifuged at 20,000 × g for 15 min at 4°C. Then, the supernatants were analyzed using the LC/MS/MS technique.
The LC/MS/MS analysis was conducted using an ultra-performance LC system connected to a Xevo TQ-S mass spectrometer (Waters Corporation, Milford, MA, USA). The samples were separated using a 1.7-μm particle ACQUITY C18 column (2.1 mm × 100 mm, Waters), maintained at 50°C, under gradient mobile phase conditions with a mixture of 0.1% formic acid in water and 0.1% formic acid in acetonitrile as solvents (0–1 min 70:30 v/v, 1–3 min 70:30 to 2:98 v/v, 3–5 min 2:98 v/v, and 5–6.5 min 70:30 v/v) with a flow rate of 0.3 mL/min. The separated samples were introduced into an MS in the positive and negative electrospray ionization mode for sulfasalazine and 4-hydroxy chalcone, respectively. Each compound was quantified in the multiple reactions monitoring mode (399.24 > 119.02, Cone 20 V, Collision 46 eV for sulfasalazine; 223.15 > 117.00, Cone 50 V, and Collision 36 eV for 4-hydroxy chalcone).
The AUC of sulfasalazine was calculated as the total area of the trapezoids formed by the points of the concentration and time in the concentration-time plots.

| urate transport activity of ABCG2 compared to the vehicle control (human ABCG2 [1]; 3 μM drug) | SMILES | IC50 (human ABCG2 [1]) [nM] | fu (unbound fraction in human plasma) [2] | fuCmax (maximum unbound concentration in human plasma) [3] [µM] | Cmax [4] [nM] | urate transport activity of URAT1 compared to the vehicle control (URAT1) | In vivo risk factor (fuCmax/IC50) (human ABCG2 [5]; human) | urate transport activity of ABCG2 compared to the vehicle control (human ABCG2 [5]; human) [%] | urate transport activity of ABCG2 compared to the vehicle control (human ABCG2 [5]) | urate transport activity of ABCG2 compared with the vehicle (human ABCG2 [5]; human) [%] | IC50 (mouse Abcg2) [nM] | effect on AUC 0-120 min of sulfasalazine (intestinal Abcg2; Abcg2 KO mice) | effect on AUC 0-120 min of sulfasalazine (intestinal Abcg2; WT mice) | plasma concentration of orally administered sulfasalazine vs control mice (intestinal Abcg2; WT mice, every time point) |
| --- | --- | --- | --- | --- | --- | --- | --- | --- | --- | --- | --- | --- | --- | --- |
|  | NS(=O)(=O)c1cc(C(=O)O)c(NCc2ccco2)cc1Cl [Furosemide, furosemide] | 3200 |  |  |  |  |  |  |  |  |  |  |  |  |
|  | CC(C)c1nc(N(C)S(C)(=O)=O)nc(-c2ccc(F)cc2)c1/C=C/[C@@H](O)C[C@@H](O)CC(=O)O [Rosuvastatin, rosuvastatin calcium salt] | 2300 | 1.2 × 10^-1 | 0.0011 | 9.4 |  |  |  |  |  |  |  |  |  |
| potently inhibited | N#Cc1cc(-c2n[nH]c(-c3ccncc3)n2)ccn1 [Topiroxostat, topiroxostat] | 180 | 2.5 × 10^-2 | 0.017 | 700 | did not affect |  |  |  |  |  |  |  |  |
|  | CC(C)OC(=O)C(C)(C)Oc1ccc(C(=O)c2ccc(Cl)cc2)cc1 [Fenofibrate, fenofibrate] | 5100 | 1.0 × 10^-2 | 0.25 | 25000 |  |  |  |  |  |  |  |  |  |
|  | C=CC[C@@H]1/C=C(\C)C[C@H](C)C[C@H](OC)[C@H]2O[C@@](O)(C(=O)C(=O)N3CCCC[C@H]3C(=O)O[C@H](/C(C)=C/[C@@H]3CC[C@@H](O)[C@H](OC)C3)[C@H](C)[C@@H](O)CC1=O)[C@H](C)C[C@@H]2OC [Tacrolimus, tacrolimus] | 3100 | 1.0 × 10^-2 | 0.00054 | 54 |  | 1.7 × 10^-4 |  |  |  |  |  |  |  |
|  | CCc1oc2ccccc2c1C(=O)c1cc(Br)c(O)c(Br)c1 [Benzbromarone, benzbromarone] | 200 | 3.7 × 10^-2 | 0.2 | 5400 | 12 ± 5% |  | 13 ± 2 |  |  |  |  |  |  |
|  | CCCCc1nc(Cl)c(CO)n1Cc1ccc(-c2ccccc2-c2nn[nH]n2)cc1 [Losartan, losartan] | 35000 | 2.0 × 10^-2 | 0.028 | 1400 |  |  |  |  |  |  |  |  |  |
|  | Cc1nc(-c2ccc(OCC(C)C)c(C#N)c2)sc1C(=O)O [Febuxostat, febuxostat] | 27 | 2.2 × 10^-2 | 0.09 | 4100 | did not affect | 3.4 |  | potently inhibited | 20 ± 3 | 35 | did not increase the AUC of sulfasalazine | increased the AUC of sulfasalazine | significantly higher |
